Results from patent publication US20090209577A1, “Novel Triazolopyridine Compounds” (PFIZER INC., priority 2004, published 2009).
Structures can show the parent of a compound that is named as a salt.

The molecules below were run against T1, human p38 kinase alpha (Homo sapiens, UniProt Q16539) (assay: p38 kinase in vitro assay (PHAS-I / 32P-ATP format or EGFRP / 33P-ATP format)). Settings: activated human p38 kinase alpha, 50 μM unlabeled ATP; two assay formats, table does not say which.
T1 construct: The coding region of the human p38a cDNA was obtained by PCR-amplification from RNA isolated from the human monocyte cell line THP.1; made in house; host or cells: E. coli DH10B
Assay type: biochemical
Experimental: The ability of compounds to inhibit human p38 kinase alpha was evaluated using two in vitro assay methods. In the first method, activated human p38 kinase alpha phosphorylates a biotinylated substrate, PHAS-I (phosphorylated heat and acid stable protein-insulin inducible), in the presence of gamma ^32P-ATP (^32P-ATP). PHAS-I was biotinylated prior to the assay and provides a means of capturing the substrate, which is phosphorylated during the assay. p38 Kinase was activated by MKK6. Compounds were tested in 10 fold serial dilutions over the range of 100 μM to 0.001 μM using 1% DMSO. Each concentration of inhibitor was tested in triplicate.
All reactions were carried out in 96 well polypropylene plates. Each reaction well contained 25 mM HEPES pH 7.5, 10 mM magnesium acetate and 50 μM unlabeled ATP. Activation of p38 was required to achieve sufficient signal in the assay. Biotinylated PHAS-1 was used at 1-2 μg per 50 μl reaction volume, with a final concentration of 1.5 μM. Activated human p38 kinase alpha was used at 1 μg per 50 μl reaction volume representing a final concentration of 0.3 μM. Gamma ^32P-ATP was used to follow the phosphorylation of PHAS-1. ^32P-ATP has a specific activity of 3000 Ci/mmol and was used at 1.2 μCi per 50 μl reaction volume. The reaction proceeded either for one hour or overnight at 30° C.
Following incubation, 20 μl of reaction mixture was transferred to a high capacity streptavidin coated filter plate (SAM-streptavidin-matrix, Promega) prewetted with phosphate buffered saline. The transferred reaction mix was allowed to contact the streptavidin membrane of the Promega plate for 1-2 minutes. Following capture of biotinylated PHAS-1 with ^32P incorporated, each well was washed to remove unincorporated ^32P-ATP three times with 2M NaCl, three washes of 2M NaCl with 1% phosphoric, three washes of distilled water and finally a single wash of 95% ethanol. Filter plates were air-dried and 20 μl of scintillant was added. The plates were sealed and counted.
A second assay format was also employed that is based on p38 kinase alpha induced phosphorylation of EGFRP (epidermal growth factor receptor peptide, a 21 mer) in the presence ^33P-ATP. Compounds were tested in 10 fold serial dilutions over the range of 100 μM to 0.001 μM in 1% DMSO. Each concentration of inhibitor was tested in triplicate. Compounds were evaluated in 50 μl reaction volumes in the presence of 25 mM Hepes pH 7.5, 10 mM magnesium acetate, 4% glycerol, 0.4% bovine serum albumin, 0.4 mM DTT, 50 μM unlabeled ATP, 25 μg EGFRP (200 μM), and 0.05 μCi ^33P-ATP. Reactions were initiated by addition of 0.09 μg of activated, purified human GST-p38 kinase alpha. Activation was carried out using GST-MKK6 (5:1, p38:MKK6) for one hour at 30° C. in the presence of 50 μM ATP. Following incubation for 60 minutes at room temperature, the reaction was stopped by addition of 150 μl of AG 1×8 resin in 900 mM sodium formate buffer, pH 3.0 (1 volume resin to 2 volumes buffer). The mixture was mixed three times with pipetting and the resin was allowed to settle. A total of 50 μl of clarified solution head volume was transferred from the reaction wells to Microlite-2 plates. 150 μl of Microscint 40 was then added to each well of the Microlite plate, and the plate was sealed, mixed, and counted.
The above protocol assays were used to determine the IC50 values for compounds in Examples 1-71 above.

T1 sequence (Q16539 whole entry): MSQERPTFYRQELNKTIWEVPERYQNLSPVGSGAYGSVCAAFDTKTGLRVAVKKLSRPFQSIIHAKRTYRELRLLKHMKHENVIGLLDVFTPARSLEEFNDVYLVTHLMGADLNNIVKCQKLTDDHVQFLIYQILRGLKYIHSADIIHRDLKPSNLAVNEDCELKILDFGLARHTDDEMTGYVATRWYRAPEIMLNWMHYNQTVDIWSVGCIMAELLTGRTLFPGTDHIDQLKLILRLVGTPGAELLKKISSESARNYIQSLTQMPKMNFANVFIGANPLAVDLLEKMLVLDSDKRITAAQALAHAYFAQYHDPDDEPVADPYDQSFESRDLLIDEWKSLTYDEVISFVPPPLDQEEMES

| IC50 | SMILES |
| --- | --- |
| 181 nM | COC(=O)c1cccc(-c2nnc3ccc(Sc4ccc(F)cc4F)cn23)c1 [Example 64A, methyl 3-{6-[(2,4-difluorophenyl)thio][1,2,4]triazolo[4,3-a]pyridin-3-yl}benzoate] |
| 19500 nM | CC(C)(C)c1nnc2ccc(OCc3ccc(F)cc3F)cn12 [Example 12, 3-tert-butyl-6-[(2,4-difluorobenzyl)oxy][1,2,4]triazolo[4,3-a]pyridine] |
| 212 nM | O=C(CO)N1CCC(c2nnc3ccc(Sc4ccc(F)cc4F)cn23)CC1 [Example 44, 2-(4-{6-[(2,4-difluorophenyl)thio][1,2,4]triazolo[4,3-a]pyridin-3-yl}piperidin-1-yl)-2-oxoethanol hydrochloride] |
| > 100000 nM | O=C(O)c1cccc(-c2nnc3ccc(C(=O)c4ccc(F)cc4F)cn23)c1 [Example 66, 3-[6-(2,4-difluorobenzoyl)[1,2,4]triazolo[4,3-a]pyridin-3-yl]benzoic acid] |
| 16900 nM | CC(C)c1nnc2ccc([C@@H]3C[C@@H]3c3ccc(F)cc3F)cn12 (racemic) [Example 3, Racemic 6-[2-(2,4-difluorophenyl)cyclopropyl]-3-isopropyl[1,2,4]triazolo[4,3-a]pyridine] |
| 6080 nM | CC(C)c1nnc2cc(Cl)c(Sc3ccc(F)cc3F)c(Br)n12 [Example 39, 5-bromo-7-chloro-6-[(2,4-difluorophenyl)thio]-3-isopropyl[1,2,4]triazolo[4,3-a]pyridine] |
| 33.3 nM | Cc1cc(CNCCO)ccc1-c1nnc2ccc(Sc3ccc(F)cc3F)cn12 [Example 45, 2-[(4-{6-[(2,4-difluorophenyl)thio][1,2,4]triazolo[4,3-a]pyridin-3-yl}-3-methylbenzyl)amino]ethanol dihydrochloride] |
| 7420 nM | O=C(O)c1cccc(-c2nnc3ccc(Sc4ccc(F)cc4F)cn23)c1 [Example 64B, 3-{6-[(2,4-difluorophenyl)thio][1,2,4]triazolo[4,3-a]pyridin-3-yl}benzoic acid] |
| 367 nM | CC(=O)OCC(=O)N1CCC(c2nnc3ccc(Sc4ccc(F)cc4F)cn23)CC1 [44 (step 4), 2-(4-{6-[(2,4-difluorophenyl)thio][1,2,4]triazolo[4,3-a]pyridin-3-yl}piperidin-1-yl)-2-oxoethyl acetate hydrochloride] |
| 1270 nM | Cc1ccc(C(N)=O)cc1-c1nnc2n1CC(CCc1ccc(F)cc1F)CC2 (racemic) [Example 20, racemic 3-{6-[2-(2,4-difluorophenyl)ethyl]-5,6,7,8-tetrahydro[1,2,4]triazolo[4,3-a]pyridin-3-yl}-4-methylbenzamide] |
| > 100000 nM | CCCCSc1ccc2nnc(C(C)C)n2c1 [Example 37, 6-(butylthio)-3-isopropyl[1,2,4]triazolo[4,3-a]pyridine hydrochloride] |
| 99100 nM | CC(C)C(=O)c1ccc2nnc(C(C)C)n2c1 [Example 71, 1-(3-isopropyl[1,2,4]triazolo[4,3-a]pyridin-6-yl)-2-methylpropan-1-one] |
| 9680 nM | CC(C)c1nnc2ccc([S+]([O-])c3ccc(F)cc3F)cn12 (centres unmarked) [Example 60, 6-[(2,4-difluorophenyl)sulfinyl]-3-isopropyl[1,2,4]triazolo[4,3-a]pyridine] |
| > 100000 nM | CC(C)c1nnc2ccc(C(=O)Nc3ccc(F)cc3F)cn12 [Example 11, N-(2,4-difluorophenyl)-3-isopropyl[1,2,4]triazolo[4,3-a]pyridine-6-carboxamide] |
| 26.1 nM | CC(C)c1nnc2ccc(Cc3ccc(F)cc3F)cn12 [8 (step 1), 6-(2,4-difluorobenzyl)-3-isopropyl[1,2,4]triazolo[4,3-a]pyridine] |
| 141 nM | Cc1cc(Br)ccc1-c1nnc2ccc(Sc3ccc(F)cc3F)cn12 [45 (step 2), 3 (4-bromo-2-methylphenyl)-6-[(2,4-difluorophenyl)thio][1,2,4]triazolo[4,3-a]pyridine hydrochloride] |

| IC50 | SMILES |
| --- | --- |
| 7.2 nM | Fc1ccc(Sc2ccc3nnc(-c4c(F)cccc4F)n3c2)c(F)c1 [Example 47, 3-(2,6-difluorophenyl)-6-[(2,4-difluorophenyl)thio][1,2,4]triazolo[4,3-a]pyridine] |
| 319 nM | CC(C)(C)c1nnc2ccc(C(O)c3ccc(F)cc3F)cn12 (centres unmarked) [15 (step 1), (3-tert-butyl[1,2,4]triazolo[4,3-a]pyridin-6-yl)(2,4-difluorophenyl)methanol] |
| 28.3 nM | Cc1cc(C(O)CO)ccc1-c1nnc2ccc(Sc3ccc(F)cc3F)cn12 (centres unmarked) [45 (step 4), 1-(4-{6-[(2,4-difluorophenyl)thio][1,2,4]triazolo[4,3-a]pyridin-3-yl}-3-methylphenyl)ethane-1,2-diol hydrochloride] |
| 293 nM | CNC(=O)c1ccc(-c2nnc3ccc(Sc4ccc(F)cc4F)cn23)cc1 [Example 24, 4-{6-[(2,4-difluorophenyl)thio][1,2,4]triazolo[4,3-a]pyridin-3-yl}-N-methylbenzamide] |
| 53300 nM | CC(C)c1nnc2ccc(Cc3ccc(Cl)nc3)cn12 [Example 9, 6-[(6-chloropyridin-3-yl)methyl]-3-isopropyl[1,2,4]triazolo[4,3-a]pyridine] |
| 79.3 nM | CC(C)c1nnc2ccc(Sc3ccc(F)cc3F)cn12 [34 (step 1), 6-[(2,4-difluorophenyl)thio]-3-isopropyl[1,2,4]triazolo[4,3-a]pyridine hydrochloride] |
| 39.9 nM | CNC(=O)c1ccc(C)c(-c2nnc3ccc(Sc4ccc(F)cc4F)cn23)c1 [Example 49, 3-{6-[(2,4-difluorophenyl)thio][1,2,4]triazolo[4,3-a]pyridin-3-yl}-N,4-dimethylbenzamide] |
| 46.5 nM | Cc1ccc(C(=O)NCC(N)=O)cc1-c1nnc2ccc(Sc3ccc(F)cc3F)cn12 [Example 42, N-(3-{6-[(2,4-difluorophenyl)thio][1,2,4]triazolo[4,3-a]pyridin-3-yl}-4-methylbenzoyl)glycinamide] |
| 1050 nM | CC(C)(C)c1nnc2ccc(C(=O)c3ccc(F)cc3F)cn12 [Example 15, (3-tert-butyl[1,2,4]triazolo[4,3-a]pyridin-6-yl)(2,4-difluorophenyl)methanone] |
| 699 nM | CC(C)c1nnc2ccc(Cc3ccccc3F)cn12 [Example 67, 6-(2-fluorobenzyl)-3-isopropyl[1,2,4]triazolo[4,3-a]pyridine] |
| 181 nM | C=Cc1ccc(-c2nnc3ccc(Sc4ccc(F)cc4F)cn23)cc1 [Example 57, 6-[(2,4-difluorophenyl)thio]-3-(4-vinylphenyl)[1,2,4]triazolo[4,3-a]pyridine] |
| 17.1 nM | COC(=O)c1ccc(C)c(-c2nnc3ccc(CCc4ccc(F)cc4F)cn23)c1 [Example 17, methyl 3-{6-[2-(2,4-difluorophenyl)ethyl][1,2,4]triazolo[4,3-a]pyridin-3-yl}-4-methylbenzoate] |
| 201 nM | NC(=O)c1ccc(-c2nnc3ccc(Sc4ccc(F)cc4F)cn23)cc1 [Example 23, 4-{6-[(2,4-difluorophenyl)thio][1,2,4]triazolo[4,3-a]pyridin-3-yl}benzamide] |
| 786 nM | CC(C)(C)c1nnc2n1CC(c1ocnc1-c1cc(F)c(F)cc1F)CC2 (centres unmarked) [Example 14, 3-tert-butyl-6-[4-(2,4,5-trifluorophenyl)-1,3-oxazol-5-yl]-5,6,7,8-tetrahydro[1,2,4]triazolo[4,3-a]pyridine] |
| 241 nM | NC(=O)c1cccc(-c2nnc3ccc(Sc4ccc(F)cc4F)cn23)c1 [Example 26, 3-{6-[(2,4-difluorophenyl)thio][1,2,4]triazolo[4,3-a]pyridin-3-yl}benzamide] |
| 12.3 nM | CC(C)c1nnc2ccc(Sc3ccc(F)cc3F)c(Cl)n12 [Example 36, 5-chloro-6-[(2,4-difluorophenyl)thio]-3-isopropyl[1,2,4]triazolo[4,3-a]pyridine] |
